From US9708336B2, “Metallo-beta-lactamase inhibitors” (priority 2014, dated 2017) come the findings set out here.

Like-named read-outs stand apart in the source and are kept apart here.

The target in one experiment is NDM-1 (Klebsiella pneumoniae, UniProt C7C422). Description: biochemical. Type of experiment: biochemical.
The next experiment has as its target IMP-1 (Serratia marcescens, UniProt P52699). Description: biochemical. It is filed as biochemical. The settings on record: IMP-1 enzyme, CCF2-FA substrate; read-out: IMP-1 IC50.
The target in the next experiment is VIM-1 (Pseudomonas aeruginosa (strain ATCC 15692 / DSM 22644 / CIP 104116 / JCM 14847 / LMG 12228 / 1C / PRS 101 / PAO1), UniProt A0A0F7KYQ8). Description: Enzyme activity: determination of IC50, fluorescence assay with CCF2-FA substrate (VIM-1). Type of experiment: biochemical. To be noted: CCF2-FA substrate.
For experiment [1], the system named is Escherichia coli expressing NDM-1 (CLB30016). Description: Antibiotic potentiation activity: synergistic concentration (MITC95) with imipenem, OD600 growth. Type of experiment: cell-based. The settings on record: (CLB30016, NDM-1), 95% growth inhibition. Summed up: (§1)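 Imipenem (4 μg/ml final; 1 μg/ml as an option) was combined with compound against isolates diluted 1:100 from saline suspensions into 1.1× CAMHB. Growth was assessed by absorbance at 22–24 h, 35 °C.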

The test system of experiment [2] is Klebsiella pneumoniae expressing VIM-1 (IHMA599644). Described as above. It is filed as cell-based. To be noted: Klebsiella pneumoniae IHMA599644 (VIM-1), 95% growth inhibition. Summed up:
as §1

Experiment [3] has as its system Serratia marcescens expressing IMP-1 (CL5741). Described as above. Type of experiment: cell-based. The settings on record: Serratia marcescens CL5741 (IMP-1), 95% growth inhibition. Summed up: as §1
[4] abbreviates: VIM-1 enzyme, read-out: VIM-1 IC50.
Setting [5] is: NDM-1 enzyme, CCF2-FA substrate, read-out: NDM-1 IC50.

Chain of NDM-1 (C7C422 whole entry, looked up, species assumed): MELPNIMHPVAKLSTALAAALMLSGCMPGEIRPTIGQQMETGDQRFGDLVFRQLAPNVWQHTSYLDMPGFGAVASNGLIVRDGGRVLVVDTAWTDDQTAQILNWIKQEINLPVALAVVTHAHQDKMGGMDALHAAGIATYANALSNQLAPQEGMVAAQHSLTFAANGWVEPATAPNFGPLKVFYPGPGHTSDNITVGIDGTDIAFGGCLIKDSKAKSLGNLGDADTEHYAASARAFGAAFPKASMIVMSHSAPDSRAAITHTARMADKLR
Chain of IMP-1 (P52699 whole entry, looked up): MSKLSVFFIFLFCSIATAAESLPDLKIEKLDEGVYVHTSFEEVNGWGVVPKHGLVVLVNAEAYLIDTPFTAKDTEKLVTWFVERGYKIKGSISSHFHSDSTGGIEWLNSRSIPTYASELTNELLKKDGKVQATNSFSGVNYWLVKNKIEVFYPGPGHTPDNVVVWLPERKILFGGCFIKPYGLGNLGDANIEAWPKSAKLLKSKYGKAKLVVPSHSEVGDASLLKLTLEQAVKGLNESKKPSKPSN

`N=C(N)NC[C@H]1CC[C@H](c2ccc(C(F)(F)F)c(S(N)(=O)=O)c2-c2nnn[nH]2)CC1` [Example 503, 3-(trans 4-(guanidinomethyl)cyclohexyl)-2-(1H-tetrazol-5-yl)-6-(trifluoromethyl)benzenesulfonamide]: the IC50 on NDM-1 came to 1.14 nM; at IMP-1 it was 4.2 nM; on VIM-1 (setting [4]), 0.183 nM. Besides, in experiment [1], the “Escherichia coli MITC95” value is 0.1953 µM. Besides, the “Klebsiella pneumoniae MITC95” value in experiment [2] turned out to be 0.7813 µM. Also, the “Serratia marcescens MITC95” value in experiment [3] is 0.1953 µM.

As to `NS(=O)(=O)c1c(C(F)(F)F)ccc([C@H]2CC[C@@H](C3=NCCN3)CC2)c1-c1nnn[nH]1` [Example 505, 3-(cis 4-(4,5-dihydro-1H-imidazol-2-yl)cyclohexyl)-2-(1H-tetrazol-5-yl)-6-(trifluoromethyl)benzenesulfonamide], the IC50 amounted to 9.54 nM on NDM-1; 22.2 nM at IMP-1; 0.937 nM against VIM-1 (VIM-1 IC50, VIM-1 enzyme). The “Escherichia coli MITC95” value in experiment [1] came to 6.25 µM. Besides, the “Klebsiella pneumoniae MITC95” value in experiment [2] turned out to be 12.5 µM. The “Serratia marcescens MITC95” value in experiment [3] was 6.25 µM.

Consider `NS(=O)(=O)c1c(C(F)(F)F)ccc([C@H]2CC[C@H](C3=NCCN3)CC2)c1-c1nnn[nH]1` [Example 506, 3-(trans 4-(4,5-dihydro-1H-imidazol-2-yl)cyclohexyl)-2-(1H-tetrazol-5-yl)-6-(trifluoromethyl)benzenesulfonamide], for which the IC50 against NDM-1 was determined as 2.22 nM; at IMP-1, 35.7 nM; against VIM-1 (VIM-1 IC50, VIM-1 enzyme), 41.4 nM. Further, in experiment [1], the “Escherichia coli MITC95” value came out at 4.688 µM. The “Klebsiella pneumoniae MITC95” value in experiment [2] stood at 100 µM. Also, the “Serratia marcescens MITC95” value in experiment [3] was determined as 6.25 µM.

As for `Nc1ncc(C#Cc2ccc(C(F)(F)F)c(S(N)(=O)=O)c2-c2nn[nH]n2)cc1CO` [Example 507, 3-((6-Amino-5-(hydroxymethyl)pyridin-3-yl)ethynyl)-2-(2H-tetrazol-5-yl)-6-(trifluoromethyl)benzenesulfonamide], the IC50 stood at 11.5 nM on NDM-1 (setting [5]); 4.31 nM at IMP-1; 3.27 nM against VIM-1 (VIM-1 IC50, VIM-1 enzyme). The “Escherichia coli MITC95” value in experiment [1] is 4.688 µM. Also, in experiment [2], the “Klebsiella pneumoniae MITC95” value was 25 µM. The “Serratia marcescens MITC95” value in experiment [3] is 0.5859 µM.

Regarding `Nc1ncc(CCc2ccc(C(F)(F)F)c(S(N)(=O)=O)c2-c2nn[nH]n2)cc1CO` [Example 508, 3-(2-(6-Amino-5-(hydroxymethyl)pyridin-3-yl)ethyl)-2-(2H-tetrazol-5-yl)-6-(trifluoromethyl)benzenesulfonamide], the IC50 at NDM-1 (setting [5]) amounted to 4.55 nM; at IMP-1 it was 2.37 nM; at VIM-1 (setting [4]) it was 1.66 nM. The “Escherichia coli MITC95” value in experiment [1] was found to be 0.8359 µM. Moreover, in experiment [2], the “Klebsiella pneumoniae MITC95” value turned out to be 3.125 µM. Besides, in experiment [3], the “Serratia marcescens MITC95” value is 0.0625 µM.

Take `NCC(CN)c1ccc(-c2cccc(S(N)(=O)=O)c2-c2nnn[nH]2)cc1` [Example 509, 4′-(1,3-Diaminopropan-2-yl)-2-(1H-tetrazol-5-yl)-[1,1′-biphenyl]-3-sulfonamide]: the IC50 worked out at 57.4 nM at NDM-1 (setting [5]), 929 nM on IMP-1 and 396 nM on VIM-1 (setting [4]). Besides, the “Escherichia coli MITC95” value in experiment [1] was 1.563 µM. Besides, the “Klebsiella pneumoniae MITC95” value in experiment [2] was 50 µM. The “Serratia marcescens MITC95” value in experiment [3] is 12.5 µM.

With `NS(=O)(=O)c1c(C(F)(F)F)ccc(C2CCCc3sc(C(=O)O)nc32)c1-c1nnn[nH]1` (stereo not drawn) [Example 510, 4-(3-Sulfamoyl-2-(1H-tetrazol-5-yl)-4-(trifluoromethyl)phenyl)-4,5,6,7-tetrahydrobenzo[d]thiazole-2-carboxylic acid], the values for the IC50 at NDM-1 (setting [5]), at IMP-1 and on VIM-1 (setting [4]) were 3.42 nM, 47.4 nM and 12.8 nM, respectively. Besides, the “Escherichia coli MITC95” value in experiment [1] stood at 50 µM. Moreover, the “Klebsiella pneumoniae MITC95” value in experiment [2] is over 200 µM. Also, the “Serratia marcescens MITC95” value in experiment [3] was 200 µM.

As to `NC1=NCC(c2ccc(-c3cccc(S(N)(=O)=O)c3-c3nnn[nH]3)cc2)CN1` (stereo not drawn) [Example 511, 4′-(2-Amino-1,4,5,6-tetrahydropyrimidin-5-yl)-2-(1H-tetrazol-5-yl)-[1,1′-biphenyl]-3-sulfonamide], the IC50 stood at 4.8 nM at NDM-1 (setting [5]); 14.3 nM on IMP-1; 41.6 nM at VIM-1 (VIM-1 IC50, VIM-1 enzyme). Besides, in experiment [1], the “Escherichia coli MITC95” value is 3.125 µM. In addition, in experiment [2], the “Klebsiella pneumoniae MITC95” value turned out to be 100 µM. The “Serratia marcescens MITC95” value in experiment [3] worked out at 3.125 µM.

With `COCc1cc(CCc2ccc(C(F)(F)F)c(S(N)(=O)=O)c2-c2nn[nH]n2)cnc1N` [Example 512, 3-(2-(6-Amino-5-(methoxymethyl)pyridin-3-yl)ethyl)-2-(2H-tetrazol-5-yl)-6-(trifluoromethyl)benzenesulfonamide], the IC50 on NDM-1 (setting [5]) came out at 162 nM; at IMP-1, 46 nM; on VIM-1 (setting [4]), 3.9 nM. In experiment [1], the “Escherichia coli MITC95” value is 9.375 µM. Further, the “Klebsiella pneumoniae MITC95” value in experiment [2] worked out at 2.344 µM. Besides, in experiment [3], the “Serratia marcescens MITC95” value was determined as 0.9766 µM.

On to `NCc1ncc(CCc2ccc(C(F)(F)F)c(S(N)(=O)=O)c2-c2nn[nH]n2)cc1N` [Example 513, 3-(2-(5-Amino-6-(aminomethyl)pyridin-3-yl)ethyl)-2-(2H-tetrazol-5-yl)-6-(trifluoromethyl)benzenesulfonamide], for which the IC50 amounted to 9.35 nM at NDM-1 (setting [5]), 3.61 nM at IMP-1 and 1.18 nM at VIM-1 (setting [4]). Moreover, in experiment [1], the “Escherichia coli MITC95” value was determined as 12.5 µM. In addition, the “Klebsiella pneumoniae MITC95” value in experiment [2] worked out at 9.375 µM. The “Serratia marcescens MITC95” value in experiment [3] stood at 9.375 µM.

Consider `NS(=O)(=O)c1c(C(F)(F)F)ccc(-c2cccc3c2ccc[n+]3[O-])c1-c1nn[nH]n1` [Example 514, 5-(3-Sulfamoyl-2-(2H-tetrazol-5-yl)-4-(trifluoromethyl)phenyl)quinoline 1-oxide], for which the half-maximal inhibitory concentration (IC50) was 1.15 nM on NDM-1 (setting [5]), 6.08 nM on IMP-1 and 0.138 nM at VIM-1 (setting [4]). Moreover, the “Escherichia coli MITC95” value in experiment [1] came out at 3.125 µM. Moreover, the “Klebsiella pneumoniae MITC95” value in experiment [2] stood at 9.375 µM. Further, the “Serratia marcescens MITC95” value in experiment [3] was 1.172 µM.

On to `NS(=O)(=O)c1c(C(F)(F)F)ccc(-c2cccc3cnccc23)c1-c1nn[nH]n1` [Example 515, 3-(Isoquinolin-5-yl)-2-(2H-tetrazol-5-yl)-6-(trifluoromethyl)benzenesulfonamide], for which the IC50 on NDM-1 (setting [5]) is 0.603 nM; at IMP-1, 3.68 nM; on VIM-1 (VIM-1 IC50, VIM-1 enzyme), 0.309 nM. For the same compound, the “Escherichia coli MITC95” value in experiment [1] was 4.688 µM. The “Klebsiella pneumoniae MITC95” value in experiment [2] was determined as 6.25 µM. In experiment [3], the “Serratia marcescens MITC95” value came to 0.3906 µM.

As for `NS(=O)(=O)c1c(C(F)(F)F)ccc(-c2cccc3c[n+]([O-])ccc23)c1-c1nn[nH]n1` [Example 516, 5-(3-Sulfamoyl-2-(2H-tetrazol-5-yl)-4-(trifluoromethyl)phenyl)isoquinoline 2-oxide], the IC50 is 2.4 nM on NDM-1 (setting [5]), 12.6 nM at IMP-1 and 0.277 nM at VIM-1 (setting [4]). In addition, in experiment [1], the “Escherichia coli MITC95” value was found to be 6.25 µM. Further, the “Klebsiella pneumoniae MITC95” value in experiment [2] was found to be 6.25 µM. For the same compound, the “Serratia marcescens MITC95” value in experiment [3] turned out to be 0.7813 µM.

For `NS(=O)(=O)c1c(C(F)(F)F)ccc(-c2cccc3c2CCNC3)c1-c1nn[nH]n1` [Example 517, 3-(1,2,3,4-Tetrahydroisoquinolin-5-yl)-2-(2H-tetrazol-5-yl)-6-(trifluoromethyl)benzenesulfonamide], the half-maximal inhibitory concentration (IC50) came to 5.88 nM at NDM-1 (setting [5]), 37.2 nM on IMP-1 and 0.937 nM on VIM-1 (setting [4]). Besides, the “Escherichia coli MITC95” value in experiment [1] is 3.125 µM. The “Klebsiella pneumoniae MITC95” value in experiment [2] came out at 1.563 µM. The “Serratia marcescens MITC95” value in experiment [3] came to 3.125 µM.

As to `NS(=O)(=O)c1c(C(F)(F)F)ccc(-c2cccc3c2CCCN3)c1-c1nnn[nH]1` [Example 518, 3-(1,2,3,4-Tetrahydroquinolin-5-yl)-2-(1H-tetrazol-5-yl)-6-(trifluoromethyl)benzenesulfonamide], the concentration for half-maximal inhibition (IC50) on NDM-1 (setting [5]) is 0.775 nM; at IMP-1 it was 1.62 nM; against VIM-1 (VIM-1 IC50, VIM-1 enzyme), 0.342 nM. Moreover, the “Escherichia coli MITC95” value in experiment [1] came to 1.563 µM. For the same compound, the “Klebsiella pneumoniae MITC95” value in experiment [2] worked out at 6.25 µM. In addition, in experiment [3], the “Serratia marcescens MITC95” value came out at 0.3906 µM.

As for `NS(=O)(=O)c1cccc(C2CCCc3ncccc32)c1-c1nn[nH]n1` (stereo not drawn) [Example 519, 3-(5,6,7,8-Tetrahydroquinolin-5-yl)-2-(2H-tetrazol-5-yl)benzenesulfonamide], the IC50 on NDM-1 (setting [5]) was found to be 3.78 nM; at IMP-1, 766 nM; against VIM-1 (VIM-1 IC50, VIM-1 enzyme) it was 24.6 nM. The “Escherichia coli MITC95” value in experiment [1] is 1.563 µM. For the same compound, the “Klebsiella pneumoniae MITC95” value in experiment [2] turned out to be 37.5 µM. For the same compound, the “Serratia marcescens MITC95” value in experiment [3] is 100 µM.

As for `NS(=O)(=O)c1cccc(-c2cccc3c2OCC3=O)c1-c1nn[nH]n1` [Example 521, 3-(3-Oxo-2,3-dihydrobenzofuran-7-yl)-2-(2H-tetrazol-5-yl)benzenesulfonamide], the IC50 at NDM-1 (setting [5]) was 3.44 nM; on IMP-1 it was 559 nM; on VIM-1 (setting [4]), 19.7 nM. Also, in experiment [1], the “Escherichia coli MITC95” value is 1.563 µM. In addition, the “Klebsiella pneumoniae MITC95” value in experiment [2] amounted to 12.5 µM. In addition, the “Serratia marcescens MITC95” value in experiment [3] came out at 12.5 µM.
